Results on two compounds are retold here after patent US8685462B1, “Whole, leech saliva product and applications thereof” (priority 2012, dated 2014).

For experiment [1], the system named is Cryptococcus neoformans ATCC90112. The experiment can be described thus: Kirby-Bauer disc diffusion. The settings on record: reference antibiotic disc, 100 unit. Background: Agar diffusion results depend on both activity and mobility in agar.
Experiment [2] relates to Candida albicans ATCC10231. The experiment can be described thus: Kirby-Bauer disc diffusion. The settings on record: reference antibiotic disc, 100 unit.
For another experiment, the system named is induced-diabetic rats. The experiment can be described thus: Antihyperglycemic activity: fasting blood glucose in alloxan-induced diabetic rats. The experiment is classed as in vivo, rat.

Take `C[C@@H]1[C@H](O)[C@@H](C)/C=C/C=C/CC/C=C/C=C/C=C/C=C/C(O[C@H]2O[C@H](C)[C@@H](O)[C@H](N)[C@@H]2O)CC2O[C@](O)(CC(O)C(O)CCC(O)CC(O)CC(O)CC(=O)O[C@H]1C)CC(O)C2C(=O)O` (some centres unmarked) [Nystatin, nystatin]: the Zone of inhibition in experiment [1] turned out to be 9 mm; in experiment [2], 10 mm.
On to “insulin: insulin from bovine pancreas (≧27 units/mg), suspension in distilled water”, for which, in the experiment on induced-diabetic rats (diabetic rats, s.c., two hours), the “FBG after two hours of injection” value is on record as “sharp significant decrease”. The “difference between normal rats and treated diabetic rats” value with induced-diabetic rats (either dose) is on record as “No significant difference”. Moreover, in the experiment on induced-diabetic rats (lower dose of insulin (10 units/kg b.w)), the “FBG after 8 hours of treatment” value is recorded as “returned to the diabetic state”.
